Legend:
[1] = Solubility and solids precipitation limits of amines in water; format: physicochemical
[2] = Cyclic CO2 capacity calculated from the regressed VLE model; format: physicochemical; settings: for CO2 Capacity: Conc. (m): MDEA/PZ 7/2, PZ 8, MEA 7, HEP 7.7, AEP 6, 2-PE 8, AMP 4.8, EDA 12, DGA 10, PZ-MPZ 4/4, MPZ 8
[3] = Heat of CO2 absorption calculated from the VLE model; format: physicochemical; settings: for ΔHabs@PCO2 = 1.5 kPa: Conc. (m): MDEA/PZ 7/2, PZ 8, MEA 7, HEP 7.7, AEP 6, 2-PE 8, AMP 4.8, EDA 12, DGA 10, PZ-MPZ 4/4, MPZ 8
Experimental: VLE models of CO2 partial pressure were regressed from experimental data to calculate CO2 capacity and enthalpy of CO2 absorption (ΔHabs).
Heat of absorption was calculated from the model mentioned above by applying the following thermodynamic equation: […]
Heat of absorption was calculated from the model mentioned above by applying the Gibbs-Helmholtz equation: […]
The heat absorption of CO2 at a 1.5 kPa, which is an average CO2 partial pressure for lean and rich solutions, was calculated.

[4] = CO2 solubility (CO2 partial pressure) measured in the wetted wall column; format: physicochemical
Source text: (§1) VLE models of CO2 partial pressure were regressed from experimental data to calculate CO2 capacity and enthalpy of CO2 absorption (ΔHabs). […] MPZ and PZ-MPZ both have a slightly higher capacity than PZ. PZ-MPZ absorbs CO2 at a slightly slower rate than 8 m PZ at rich loading, about 50% faster than 7 m MEA. kg′ for MPZ is the same to 7 m MEA. Heat of CO2 absorption for PZ-MPZ (ΔHabs=70 kJ/mol) and MPZ (72 kJ/mol) is close to that for PZ (70 kJ/mol).
CO2 solubility for PZ-MPZ and MPZ are shown in FIG. 3 and FIG. 4, respectively. The filled points are experimental data at varied loadings and temperatures. Parameters for the following semi-empirical VLE equation (Equation 3) were regressed and the model was presented as solid curves in the figures. The curves fit the points satisfactorily. ln P=a+b/T+c·α+d·α/T+e·α^2 Eqn. 3
CO2 solubility for 1-MPZ and the PZ blend are shown in FIG. 11 and FIG. 12 respectively. The filled points are experimental data at varied loadings and temperatures. Parameters for the following semi-empirical VLE equation ln P=a+b/T+c·α+d·α/T+e·α^2 (Eqn. 3) were regressed and the model was presented as curves in the figures. α is the CO2 loading defined as nCO2/nalka. The curves fit the points satisfactorily.

[5] = CO2 absorption/desorption rate (liquid film mass transfer coefficient kg′) in the wetted wall column; format: physicochemical
Source text: The CO2 absorption rate of a particular amine may be useful in determining whether an amine is desirable for acidic gas removal. In general, a greater rate of CO2 absorption will allow for the use of less packing, reduced lean loading, or greater rich loading, which in turn can reduce energy consumption. The rate of CO2 absorption can be characterized as the normalized flux, kg′ (gmol/m^2-s-Pa), measured in a model contactor such as a wetted wall column. Similarly, a greater heat of CO2 desorption will reduce the energy requirement of an absorber/stripper relying upon temperature swing regeneration.
as §1
In FIG. 5, absorption/desorption rates for PZ-MPZ at 40° C., 60° C., 80° C. and 100° C. are compared with that of 7 m MEA and 8 m PZ at 40° C.
In FIG. 13 and FIG. 14, absorption/desorption rates for 1-MPZ and the PZ blend at 40° C., 60° C., 80° C. and 100° C. are compared with that of 7 m MEA and 8 m PZ at 40° C.

[6] = Thermal degradation in sealed stainless steel cylinders at 150° C., loss of original amine over time; format: physicochemical; settings: 8 m 1-MPZ, end of the experiment (30 weeks)
Experimental: Samples of each solution were contained in stainless steel, well-sealed cylinders and placed in a forced-convection oven for extended periods of time. The loss of the original amine is tracked over time to determine the rate of thermal degradation.
The thermal degradation of 8 m 1-MPZ at 150° C. was studied. The main degradation products are PZ, 1,4-DMPZ, formyl amides, and formate.
The thermal degradation of a blend of 4 m PZ and 4 m 1-MPZ at 150° C. was previously studied. […] Based on the results of the 8 m 1-MPZ experiment discussed above, 1,4-DMPZ was expected to be produced as a degradation product.
Solutions with varying compositions were placed in thermal cylinders at 150° C. for up to 15 weeks. At this temperature, some degradation will occur, but the conversion between PZ, 1-MPZ, and 1,4-DMPZ should be able to be observed. Three starting solutions were used: 5 m PZ+2 m 1-MPZ+1 m 1,4-DMPZ (5/2/1), 5 m PZ+2.5 m 1-MPZ+0.5 m 1,4-DMPZ (5/2.5/0.5), and 5 m PZ+1.5 m 1-MPZ+[…]. To establish the blend concentrations, it was originally hypothesized that the equilibrium concentration would be 5/2/1. Therefore, that blend, as well as two blends with increased or decreased 1-MPZ concentrations were used and the concentration of 1,4-DMPZ was adjusted to maintain a total concentration of 8 m.

[7] = Solubility measurements of CO2 loaded PZ/1-MPZ/1,4-DMPZ blends; format: physicochemical
Experimental: Solubility measurements for CO2 loaded 3.9 m PZ/3.9 m 1-MPZ/0.2 m 1,4-DMPZ and 3.75 m PZ/3.75 m 1-MPZ/0.5 m 1,4-DMPZ solutions were taken to predict the solubility envelope of these blends. The solubility of the blends at varying loadings and temperatures are shown in FIG. 7 for the 3.9 m PZ/3.9 m 1-MPZ/0.2 m 1,4-DMPZ blend and in FIG. 8 for the 3.75 m PZ/3.75 m 1-MPZ/0.5 m 1,4-DMPZ blend. […] At 0° C., the 8 m blend: 3.75 m PZ/3.75 m 1-MPZ/0.5 m […] was soluble at 2° C. with a lean loading of 0.17 mol CO2/mol alkalinity, in contrast to 8 m PZ, which must be operated at loading above 0.3 to avoid solids precipitation.
A maximum CO2 loading of 0.41 and 0.39 was obtained for the 3.9 m PZ/3.9 m 1-MPZ/0.2 m 1,4-DMPZ blend and the 3.75 m PZ/3.75 m 1-MPZ/0.5 m 1,4 DMPZ blend respectively at room temperature without any solid precipitation. Intermediary loaded solutions were prepared by appropriately mixing the rich loaded and zero loaded solutions and observed at temperatures between 0° C. and the melting point of the solution.

[8] = 298K; cited from earlier work
[9] = ambient temperature; cited from earlier work

CC(N)CN (stereo not shown) [1,2-diaminopropane]
solids precipitation ([1]; rich conditions, 8 m): precipitates solids

OCCN1CCNCC1 [HEP]
CO2 Capacity [2]: 0.68 mol/kg (water + amine)
ΔHabs@PCO2 = 1.5 kPa [3]: 69 kJ/mol

CC1CNCCN1 (racemic) [2MPZ, 2-methyl piperazine]
PCO2 ([4]; Temp 40° C., CO2 Loading 0.102 mol/mol alka, 8 m MPZ): 0.01 kPa
PCO2 ([4]; Temp 40° C., CO2 Loading 0.154 mol/mol alka, 8 m MPZ): 0.04 kPa
PCO2 ([4]; Temp 40° C., CO2 Loading 0.203 mol/mol alka, 8 m MPZ): 0.12 kPa
PCO2 ([4]; Temp 40° C., CO2 Loading 0.253 mol/mol alka, 8 m MPZ): 0.32 kPa
PCO2 ([4]; Temp 40° C., CO2 Loading 0.3 mol/mol alka, 8 m MPZ): 0.96 kPa
PCO2 ([4]; Temp 40° C., CO2 Loading 0.365 mol/mol alka, 8 m MPZ): 4.73 kPa
PCO2 ([4]; Temp 60° C., CO2 Loading 0.102 mol/mol alka, 8 m MPZ): 0.09 kPa
PCO2 ([4]; Temp 60° C., CO2 Loading 0.154 mol/mol alka, 8 m MPZ): 0.29 kPa
PCO2 ([4]; Temp 60° C., CO2 Loading 0.203 mol/mol alka, 8 m MPZ): 0.86 kPa
PCO2 ([4]; Temp 60° C., CO2 Loading 0.253 mol/mol alka, 8 m MPZ): 2.26 kPa
PCO2 ([4]; Temp 60° C., CO2 Loading 0.3 mol/mol alka, 8 m MPZ): 4.87 kPa
PCO2 ([4]; Temp 60° C., CO2 Loading 0.365 mol/mol alka, 8 m MPZ): 22.41 kPa
PCO2 ([4]; Temp 80° C., CO2 Loading 0.102 mol/mol alka, 8 m MPZ): 0.59 kPa
PCO2 ([4]; Temp 80° C., CO2 Loading 0.154 mol/mol alka, 8 m MPZ): 1.80 kPa
PCO2 ([4]; Temp 80° C., CO2 Loading 0.203 mol/mol alka, 8 m MPZ): 4.06 kPa
PCO2 ([4]; Temp 80° C., CO2 Loading 0.253 mol/mol alka, 8 m MPZ): 9.72 kPa
PCO2 ([4]; Temp 80° C., CO2 Loading 0.3 mol/mol alka, 8 m MPZ): 22.06 kPa
PCO2 ([4]; Temp 100° C., CO2 Loading 0.102 mol/mol alka, 8 m MPZ): 2.68 kPa
PCO2 ([4]; Temp 100° C., CO2 Loading 0.154 mol/mol alka, 8 m MPZ): 7.39 kPa
PCO2 ([4]; Temp 100° C., CO2 Loading 0.203 mol/mol alka, 8 m MPZ): 18.65 kPa
absorption/desorption rate (kg′) compared with PZ and MEA ([5]; 0.5 kPa to 5 kPa P*CO2, comparators 7 m MEA and 8 m PZ at 40° C.): between MEA and PZ
CO2 Capacity [2]: 0.93 mol/kg (water + amine)
Heat of CO2 absorption (ΔHabs) ([3]; 8 m MPZ, 4 m PZ/4 m MPZ blend, 8 m PZ): 72 kJ/mol
ΔHabs@PCO2 = 1.5 kPa [3]: 72 kJ/mol
solubility over CO2 loading: highly soluble over the full range of CO2 loading

CN1CCNCC1 [1-MPZ, 1-methyl piperazine]
initial carbon not recovered in the form of the listed products [6]: 21%
PCO2 ([4]; Temp 40° C., CO2 Loading 0.10 mol/mol alka, 8 m 1-MPZ): 0.10 kPa
PCO2 ([4]; Temp 40° C., CO2 Loading 0.20 mol/mol alka, 8 m 1-MPZ): 1.32 kPa
PCO2 ([4]; Temp 40° C., CO2 Loading 0.26 mol/mol alka, 8 m 1-MPZ): 5.55 kPa
PCO2 ([4]; Temp 40° C., CO2 Loading […] alka, 8 m 1-MPZ): 0.35 kPa
PCO2 ([4]; Temp 60° C., CO2 Loading 0.10 mol/mol alka, 8 m 1-MPZ): 0.62 kPa
PCO2 ([4]; Temp 60° C., CO2 Loading 0.20 mol/mol alka, 8 m 1-MPZ): 6.41 kPa
PCO2 ([4]; Temp 60° C., CO2 Loading 0.26 mol/mol alka, 8 m 1-MPZ): 22.95 kPa
PCO2 ([4]; Temp 60° C., CO2 Loading […] alka, 8 m 1-MPZ): 2.15 kPa
PCO2 ([4]; Temp 80° C., CO2 Loading 0.10 mol/mol alka, 8 m 1-MPZ): 3.66 kPa
PCO2 ([4]; Temp 80° C., CO2 Loading 0.20 mol/mol alka, 8 m 1-MPZ): 25.30 kPa
PCO2 ([4]; Temp 80° C., CO2 Loading […] alka, 8 m 1-MPZ): 10.10 kPa
PCO2 ([4]; Temp 100° C., CO2 Loading 0.10 mol/mol alka, 8 m 1-MPZ): 12.84 kPa
PCO2 ([4]; Temp 100° C., CO2 Loading […] alka, 8 m 1-MPZ): 33.01 kPa
absorption/desorption rate compared with 8 m PZ and 7 m MEA ([5]; 0.5 kPa to 5 kPa CO2 partial pressure, comparators at 40° C.): nearly the same as 8 m PZ and much higher than 7 m MEA
cyclic CO2 capacity ([2]; difference between lean and rich CO2 loading at 500 Pa and 5,000 Pa CO2 partial pressure): 0.83 mol CO2/kg (water+amine)
heat absorption of CO2 ([3]; at 1.5 kPa CO2 partial pressure): 67 kJ/mol
miscibility with water [1]: fully miscible with water
precipitation when mixing only the amine in water [7]: no precipitation
first pKa [8]: 9.14
second pKa [8]: 4.63

OCCC1CCCCN1 (stereo not shown) [2-PE]
CO2 Capacity [2]: 1.23 mol/kg (water + amine)
ΔHabs@PCO2 = 1.5 kPa [3]: 73 kJ/mol

NCCOCCO [DGA ®]
CO2 Capacity [2]: 0.38 mol/kg (water + amine)
ΔHabs@PCO2 = 1.5 kPa [3]: 81 kJ/mol

C1CNCCN1.O.O.O.O.O.O [piperazine hexahydrate]
solubility in water [9]: about 2 moles/kg H2O

CC(C)(N)CO [AMP]
CO2 Capacity [2]: 0.96 mol/kg (water + amine)
ΔHabs@PCO2 = 1.5 kPa [3]: 73 kJ/mol

CN1CCN(C)CC1 [1,4-DMPZ, 1,4-dimethyl-piperazine]
precipitation when mixing only the amine in water [7]: no precipitation

NCCO [MEA, monoethanolamine]
CO2 Capacity [2]: 0.47 mol/kg (water + amine)
ΔHabs@PCO2 = 1.5 kPa [3]: 82 kJ/mol

NCCN1CCNCC1 [AEP]
CO2 Capacity [2]: 0.66 mol/kg (water + amine)
ΔHabs@PCO2 = 1.5 kPa [3]: 72 kJ/mol
